Among the data in US10821100B2, “Triazolone compounds as mPGES-1 inhibitors” (Glenmark Pharmaceuticals S.A., priority 2012, dated 2020) are inhibition and IC50 values, retold here.

This assay has as its target T1, Recombinant human mPGES-1 (Homo sapiens, UniProt O14684).
T1 construct: made in house; host or cells: CHO cells (crude microsomal fractions)
T1 sequence (O14684 1-152): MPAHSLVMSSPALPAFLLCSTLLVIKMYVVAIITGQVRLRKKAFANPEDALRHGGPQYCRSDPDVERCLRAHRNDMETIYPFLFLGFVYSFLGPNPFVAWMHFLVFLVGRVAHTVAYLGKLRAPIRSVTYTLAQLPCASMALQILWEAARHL
Nature of the assay: In-vitro screening of mPGES-1 inhibitors (inhibition of PGE2 formation from PGH2, HTRF detection). The conditions noted are these: mPGES-1 enzyme; for inhibition at 1 µM: 1 μM test compound, read-out: Percentage inhibition at 1 μM; for inhibition at 10 µM: 10 μM test compound, read-out: Percentage inhibition at 10 μM; for IC50: class symbols. Type of assay: biochemical. The text has this: In-Vitro Protocol for Screening of mPGES-1 Inhibitors: mPGES-1 (Microsomal prostaglandin E synthase-1) is a microsomal enzyme that converts endoperoxide substrate PGH2 (prostaglandin H2) to product PGE2 (prostaglandin E2) by isomerization in the presence of reduced glutathione (GSH). mPGES-1 inhibitors were screened by assessing their ability to inhibit formation of PGE2 from PGH2 in the presence of mPGES-1 using an anti-PGE2 antibody based detection method. Recombinant human mPGES-1 was generated in-house by expression in CHO cells (Ouellet M et al. (2002), Protein Expression and Purification 26: 489-495). The assay was set up using crude microsomal fractions at a protein concentration of 40-60 μg/mL. Test compounds were prepared in 100% dimethyl sulfoxide (DMSO) to obtain 20 mM stock solution and then diluted using assay buffer comprising 0.1 M Potassium phosphate buffer with 2 mM EDTA. The final concentration of DMSO in the reaction was 0.5% (v/v). Negative controls were comprised of all assay reagents except the enzyme. Positive controls were comprised of the enzyme reaction in the absence of any inhibitor. Test compounds were incubated for 10 minutes in assay buffer containing 2.5 mM GSH and mPGES-1 enzyme followed by addition of PGH2 at a concentration of 15 μM for 1 minute. The reaction was stopped by addition of Stannous chloride (11 mg/ml) and PGE2 levels were measured ([…] et al. (2005), Journal of Biomolecular Screening 10(6) 599-605; Goedken R E et al. (2008), Journal of Biomolecular Screening 13 (7): 619-625) by HTRF kit (CisBio)). Inhibition of mPGES-1 enzyme activity was measured using the percent of reaction occurring in the positive control. Concentration response curves were plotted using percent inhibition of maximum enzyme reaction. The IC50 value was calculated from the concentration response curve by nonlinear regression analysis using GraphPad PRISM software.
(In TR-FRET formats the signal depends on donor and acceptor labels being close together.)

Each structure is given as a SMILES string.

For the compound `[O-][S+]1NC(c2c(F)cccc2Cl)=NN1c1ccc(Br)cc1` (centres unmarked) [Example-1, 2-(4-Bromophenyl)-4-(2-chloro-6-fluorophenyl)-2,5-dihydro-1,2,3,5-thiatriazole-1-oxide], where the note is “crude microsomal fractions”, the inhibition (commonly the change of the read-out against control, counted positive when it falls) at 1 µM amounted to 9.32% and the inhibition at 10 µM turned out to be 68.2%.
The matching figures for `O=c1[nH]c(-c2c(F)cccc2Cl)nn1-c1ccc(-c2ccc(C(F)(F)F)nc2)cc1` [Example-2, 5-(2-Chloro-6-fluorophenyl)-2-{4-[6-(trifluoromethyl)pyridin-3-yl]phenyl}-2,4-dihydro-3H-1,2,4-triazol-3-one]: 18% and 19%.
As for `O=c1[nH]c(-c2c(F)cccc2Cl)nn1-c1ccc(C#Cc2ccccc2C(F)(F)F)cc1` [Example-3, 5-(2-Chloro-6-fluorophenyl)-2-(4-{[2-(trifluoromethyl)phenyl]ethynyl}phenyl)-2,4-dihydro-3H-1,2,4-triazol-3-one], the IC50 – broadly, the concentration at which inhibition is half-maximal – was below 50 nM. The inhibition at 1 µM (crude microsomal fractions) was 88.9%. Further, the inhibition at 3 µM (3 μM test compound, crude microsomal fractions, read-out: Percentage inhibition at 3 μM) stood at 96.8%.
For `Cc1csc(-c2ccc(-n3nc(-c4c(F)cccc4-c4cc(C)cs4)[nH]c3=O)cc2)c1` [Example-4, 5-[2-Fluoro-6-(4-methylthiophen-2-yl)phenyl]-2-[4-(4-methylthiophen-2-yl)phenyl]-2,4-dihydro-3H-1,2,4-triazol-3-one], where the note is “crude microsomal fractions”, the inhibition at 1 µM amounted to 46.4% and the inhibition at 10 µM is 69.7%.
Take `O=c1[nH]c(-c2c(F)cccc2Cl)nn1-c1ccc(C#Cc2ccc(F)nc2)cc1` [Example-5, 5-(2-Chloro-6-fluorophenyl)-2-{4-[(6-fluoropyridin-3-yl)ethynyl]phenyl}-2,4-dihydro-3H-1,2,4-triazol-3-one]: the IC50 was below 50 nM. Also, under “crude microsomal fractions”, the inhibition at 1 µM stood at 91.8% and the inhibition at 10 µM stood at 86.2%.
The matching figures for `O=c1[nH]c(-c2c(F)cccc2Cl)nn1-c1ccc(C#Cc2ccc(Cl)cc2F)cc1` [Example-6, 5-(2-Chloro-6-fluorophenyl)-2-{4-[(4-chloro-2-fluorophenyl)ethynyl]phenyl}-2,4-dihydro-3H-1,2,4-triazol-3-one]: below 50 nM, 83.9% and 87.7%.
In the same order, the values of `O=c1[nH]c(-c2c(F)cccc2Cl)nn1-c1ccc(C#Cc2ccc(C(F)(F)F)cc2Cl)cc1` [Example-7, 5-(2-Chloro-6-fluorophenyl)-2-(4-{[2-chloro-4-(trifluoromethyl)phenyl]ethynyl}phenyl)-2,4-dihydro-3H-1,2,4-triazol-3-one] are below 50 nM, 89.1% and 95.2%.
In the same order, the values of `O=c1[nH]c(-c2c(F)cccc2Cl)nn1-c1ccc(-c2cccc(OC(F)(F)F)c2)cc1` [Example-8, 5-(2-Chloro-6-fluorophenyl)-2-[3′-(trifluoromethoxy)biphenyl-4-yl]-2,4-dihydro-3H-1,2,4-triazol-3-one] are 50 to 100 nM, 84.9% and 87.2%.
`O=c1[nH]c(-c2c(F)cccc2Cl)nn1-c1ccc(Nc2cccc(C(F)(F)F)c2)cc1` [Example-9, 5-(2-Chloro-6-fluorophenyl)-2-(4-{[3-(trifluoromethyl)phenyl]amino}phenyl)-2,4-dihydro-3H-1,2,4-triazol-3-one]: where the note is “crude microsomal fractions”, the inhibition at 1 µM was determined as 1.53% and the inhibition at 10 µM turned out to be 23.2%.
Turning to `O=c1[nH]c(-c2c(F)cccc2Cl)nn1-c1ccc(C#Cc2cc(Cl)ccc2Cl)cc1` [Example-10, 5-(2-Chloro-6-fluorophenyl)-2-{4-[(2,5-dichlorophenyl)ethynyl]phenyl}-2,4-dihydro-3H-1,2,4-triazol-3-one], the IC50 is below 50 nM. Further, under “crude microsomal fractions”, the inhibition at 1 µM was determined as 84.9% and the inhibition at 10 µM amounted to 91.2%.
With `COCCCNc1nc(-c2c(F)cccc2Cl)nn1-c1ccc(Br)cc1` [Example-11, 1-(4-Bromophenyl)-3-(2-chloro-6-fluorophenyl)-N-(3-methoxypropyl)-1H-1,2,4-triazol-5-amine], where the note is “crude microsomal fractions”, the inhibition at 1 µM stood at 2.34% and the inhibition at 10 µM is 71.7%.
`O=c1[nH]c(-c2c(F)cccc2Cl)nn1-c1ccc(C#Cc2cccc(Cl)c2F)cc1` [Example-12, 1-(4-((3-Chloro-2-fluorophenyl)ethynyl)phenyl)-3-(2-chloro-6-fluorophenyl)-1H-1,2,4-triazol-5(4H)-one]: the IC50 was below 50 nM. In addition, under “crude microsomal fractions”, the inhibition at 1 µM turned out to be 84.8% and the inhibition at 10 µM is 87.5%.
Regarding `O=c1[nH]c(-c2c(F)cccc2Cl)nn1-c1ccc(C#Cc2ccc(C(F)(F)F)cn2)cc1` [Example-13, 5-(2-Chloro-6-fluorophenyl)-2-(4-{[5-(trifluoromethyl)pyridin-2-yl]ethynyl}phenyl)-2,4-dihydro-3H-1,2,4-triazol-3-one], the IC50 was above 100 nM. Also, under “crude microsomal fractions”, the inhibition at 1 µM stood at 86.3% and the inhibition at 10 µM came to 90.4%.
As for `O=c1[nH]c(-c2c(F)cccc2Cl)nn1-c1ccc(C#Cc2ccncc2Cl)cc1` [Example-14, 5-(2-Chloro-6-fluorophenyl)-2-{4-[(3-chloropyridin-4-yl)ethynyl]phenyl}-2,4-dihydro-3H-1,2,4-triazol-3-one], the IC50 was 50 to 100 nM. Under “crude microsomal fractions”, the inhibition at 1 µM was determined as 96% and the inhibition at 10 µM worked out at 95.8%.
With `O=c1[nH]c(-c2c(F)cccc2Cl)nn1-c1ccc(C#Cc2cnc(N3CCOCC3)nc2)cc1` [Example-15, 3-(2-Chloro-6-fluorophenyl)-1-(4-((2-morpholinopyrimidin-5-yl)ethynyl)phenyl)-1H-1,2,4-triazol-5(4H)-one], where the note is “crude microsomal fractions”, the inhibition at 1 µM was determined as 64.2% and the inhibition at 10 µM was found to be 83.8%.
Consider `O=c1[nH]c(-c2c(F)cccc2Cl)nn1-c1ccc(C#Cc2ccc(N3CCOCC3)nc2)cc1` [Example-16, 5-(2-Chloro-6-fluorophenyl)-2-(4-{[6-(morpholin-4-yl)pyridin-3-yl]ethynyl}phenyl)-2,4-dihydro-3H-1,2,4-triazol-3-one], for which, where the note is “crude microsomal fractions”, the inhibition at 1 µM was 40.9% and the inhibition at 10 µM was found to be 92.3%.
In the same order, the values of `O=C(NCC1CC1)c1ccc(-n2nc(-c3c(F)cccc3Cl)[nH]c2=O)cc1` [Example-17, 4-[3-(2-Chloro-6-fluorophenyl)-5-oxo-4,5-dihydro-1H-1,2,4-triazol-1-yl]-N-(cyclopropylmethyl)benzamide] are 2.52% and 44.1%.
The matching figures for `O=C(NCc1ccccc1C(F)(F)F)c1ccc(-n2nc(-c3c(F)cccc3Cl)[nH]c2=O)cc1` [Example-18, 4-[3-(2-Chloro-6-fluorophenyl)-5-oxo-4,5-dihydro-1H-1,2,4-triazol-1-yl]-N-[2-(trifluoromethyl)benzyl]benzamide]: 56.2% and 98.1%.
Regarding `COc1ccc(-n2nc(-c3c(F)cccc3Cl)[nH]c2=O)cc1C(=O)NCC1CC1` [Example-19, 5-[3-(2-Chloro-6-fluorophenyl)-5-oxo-4,5-dihydro-1H-1,2,4-triazol-1-yl]-N-(cyclopropylmethyl)-2-methoxybenzamide], for the setting “crude microsomal fractions”, the inhibition at 1 µM was 5.11% and the inhibition at 10 µM came to 29.7%.
`COc1ccc(-n2nc(-c3c(F)cccc3Cl)[nH]c2=O)cc1C(=O)NCc1ccccc1C(F)(F)F` [Example-20, 5-[3-(2-Chloro-6-fluorophenyl)-5-oxo-4,5-dihydro-1H-1,2,4-triazol-1-yl]-2-methoxy-N-[2-(trifluoromethyl)benzyl]benzamide]: for the setting “crude microsomal fractions”, the inhibition at 1 µM is 22.4% and the inhibition at 10 µM came out at 87.4%.
The matching figures for `COc1ccc(-n2nc(-c3c(F)cccc3Cl)[nH]c2=O)cc1C(=O)NC1(c2ccccc2C(F)(F)F)CC1` [Example-21, 5-[3-(2-Chloro-6-fluorophenyl)-5-oxo-4,5-dihydro-1H-1,2,4-triazol-1-yl]-2-methoxy-N-{1-[2-(trifluoromethyl)phenyl]cyclopropyl}benzamide]: 76.1% and 91.8%.
In the same order, the values of `O=C(NC1(c2ccc(C(F)(F)F)cc2)CC1)c1ccc(-n2nc(-c3c(F)cccc3Cl)[nH]c2=O)cc1` [Example-22, 4-[3-(2-Chloro-6-fluorophenyl)-5-oxo-4,5-dihydro-1H-1,2,4-triazol-1-yl]-N-{1-[4-(trifluoromethyl)phenyl]cyclopropyl}benzamide] are 39.3% and 99.7%.
